We go through 27 molecules from ChEMBL document CHEMBL3612043, “Synthesis and biological evaluation of 6-substituted indolizinoquinolinediones as catalytic DNA topoisomerase I inhibitors” (Eur J Med Chem, 2015).

Active and inactive are the calls of the source. No cut-off for these calls is given here. Where only a bound is given, the exact number is not on record here.

The species named for one test is Bos taurus. Description: Inhibition of calf thymus Top1-mediated pBR322 DNA relaxation at 25 uM preincubated for 15 mins measured after 30 mins by ethidium bromide staining relative to camptothecin.
Test [1] has as its target T1, DNA topoisomerase 1 (Homo sapiens) (UniProt P11387).
T1 sequence (whole entry): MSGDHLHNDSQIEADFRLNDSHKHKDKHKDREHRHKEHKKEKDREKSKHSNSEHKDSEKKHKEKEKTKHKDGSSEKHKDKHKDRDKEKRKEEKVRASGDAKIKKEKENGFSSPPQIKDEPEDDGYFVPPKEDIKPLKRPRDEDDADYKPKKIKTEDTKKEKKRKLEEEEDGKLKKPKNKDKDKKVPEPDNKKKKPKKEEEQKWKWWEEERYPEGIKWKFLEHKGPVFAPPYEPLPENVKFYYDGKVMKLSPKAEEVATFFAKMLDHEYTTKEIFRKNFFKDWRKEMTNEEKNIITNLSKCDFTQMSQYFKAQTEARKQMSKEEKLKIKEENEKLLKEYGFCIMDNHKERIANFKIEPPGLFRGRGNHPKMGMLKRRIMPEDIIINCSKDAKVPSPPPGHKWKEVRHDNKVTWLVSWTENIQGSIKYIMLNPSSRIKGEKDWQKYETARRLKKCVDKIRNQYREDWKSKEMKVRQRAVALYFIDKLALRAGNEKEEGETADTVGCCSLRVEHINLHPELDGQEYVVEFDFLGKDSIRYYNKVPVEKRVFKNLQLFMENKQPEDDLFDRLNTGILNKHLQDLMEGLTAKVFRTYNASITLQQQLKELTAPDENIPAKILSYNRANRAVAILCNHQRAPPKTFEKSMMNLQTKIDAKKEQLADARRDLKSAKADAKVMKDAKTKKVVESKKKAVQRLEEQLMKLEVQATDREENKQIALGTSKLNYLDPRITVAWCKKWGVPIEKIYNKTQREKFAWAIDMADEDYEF
Description: Induction of recombinant Top1 (unknown origin) assessed as 3'-[32P]-labeled 117-bp DNA oligonucleotide cleavage after 20 mins.

The test system of another test is HeLa. Description: cells. Conditions: Homo sapiens, 48 h.
A further test has as its system CA46. Description: Cytotoxicity against human CA46 cells after 48 hrs by MTT assay. The settings on record: CA46, 48 h. The format is functional, cell-based. (Formazan colour is commonly taken as a measure of viable cells.)
The next test deals with A549. Description: cells. The settings on record: Homo sapiens, A549, 48 h.
The subject of another test is HL-60. The test is described as follows: cells. The settings on record: Homo sapiens, HL-60, 48 h.
The target of test [2] is T1, DNA topoisomerase 1 (Homo sapiens). Description: Inhibition of Top1 (unknown origin)-mediated unwinding of relaxed pBR322 DNA preincubated for 10 mins measured after 30 mins by UV transilluminator analysis.

Description for A549: Cytotoxicity against human A549 cells after 48 hrs by MTT assay
Description for HL-60: Cytotoxicity against human HL60 cells after 48 hrs by MTT assay
Description for HeLa: Cytotoxicity against human HeLa cells after 48 hrs by MTT assay

By IC50 is commonly meant the midpoint of a concentration-inhibition curve. `O=C1c2cccnc2C(=O)c2c1c(C(=O)N1CCOCC1)c1ccccn21`: the Top1 relaxation inhibition relative to camptothecin (%) in the test filed under Bos taurus was below 40%. In addition, the result in test [1] was inactive. Also, the IC50 in the test with HeLa was above 100 µM; in the test on CA46, 13 µM; in the test on A549 it was 77 µM; in the test with HL-60, 22 µM.
Consider `O=C1c2cccnc2C(=O)c2c1c(C(=O)NCCCN1CCOCC1)c1ccccn21`, for which the Top1 relaxation inhibition relative to camptothecin (%) in the test listed under Bos taurus is above 120%. Further, in test [2], the inhibition entry is “Active”. The result in test [1] was inactive. Further, the IC50 amounted to 5.9 µM with HeLa, 1.1 µM with CA46, 4.2 µM with A549 and 1.3 µM in the test on HL-60.
As to `O=C1c2cccnc2C(=O)c2c1c(C(=O)OCCCN1CCOCC1)c1ccccn21`, the Top1 relaxation inhibition relative to camptothecin (%) in the test listed under Bos taurus was above 120%. Besides, in test [2], the inhibition result is “Active”. Besides, the result in test [1] was inactive. The IC50 worked out at 2.2 µM in the test with HeLa, 1.4 µM in the test with CA46, 1.9 µM in the test on A549 and 0.064 µM in the test on HL-60.
On to `O=C1c2cccnc2C(=O)c2c1c(C(=O)NCCCN1CCCC1)c1ccccn21`, for which, in the test listed under Bos taurus, the Top1 relaxation inhibition relative to camptothecin (%) was above 120%. Further, the inhibition entry in test [2] was “Active”. Besides, in test [1], the result was inactive. For the same molecule, the IC50 with HeLa came to 1.8 µM; in the test with CA46 it was 2.7 µM; with A549 it was 1.2 µM; in the test with HL-60 it was 1.9 µM.
As for `O=C1c2cccnc2C(=O)c2c1c(C(=O)NCCN1CCOCC1)c1ccccn21`, in the test listed under Bos taurus, the Top1 relaxation inhibition relative to camptothecin (%) was above 120%. Further, the inhibition entry in test [2] is “Active”. In addition, the result in test [1] was inactive. Besides, the 50% inhibitory concentration (IC50) with HeLa was 1.6 µM; in the test on CA46, 3.4 µM; with A549 it was 0.89 µM; in the test with HL-60, 1.2 µM.
For `O=C1c2cccnc2C(=O)c2c1c(C(=O)NCCc1ccccc1)c1ccccn21`, the Top1 relaxation inhibition relative to camptothecin (%) in the test listed under Bos taurus is below 40%. In test [1], the outcome was inactive. The IC50 came out at 17 µM in the test with HeLa, 7.9 µM in the test with CA46, 19 µM with A549 and 14 µM with HL-60.
`CN1CCN(C(=O)c2c3c(n4ccccc24)C(=O)c2ncccc2C3=O)CC1`: the Top1 relaxation inhibition relative to camptothecin (%) in the test filed under Bos taurus came out at 40%. In addition, the outcome in test [1] was inactive. For the same molecule, the half-maximal inhibitory concentration (IC50) was 62 µM in the test with HeLa, 2.6 µM in the test with CA46, 30 µM with A549 and 5.7 µM with HL-60.
As for `CCOC(=O)c1c2c(n3ccccc13)C(=O)c1ncccc1C2=O`, the Top1 relaxation inhibition relative to camptothecin (%) in the test listed under Bos taurus is 81%. In test [2], the inhibition result was “inactive”. Also, in test [1], the result was inactive. In addition, the IC50 in the test with HeLa came to 22 µM; in the test on CA46, 3.7 µM; in the test with A549, 1.4 µM; in the test on HL-60 it was 0.3 µM.
Consider `O=C1c2cccnc2C(=O)c2c1c(C(=O)OCCN1CCCCC1)c1ccccn21`, for which the Top1 relaxation inhibition relative to camptothecin (%) in the test filed under Bos taurus was above 120%. Besides, in test [2], the inhibition result was “Active”. In test [1], the outcome was inactive. For the same molecule, the half-maximal inhibitory concentration (IC50) in the test with HeLa stood at 2.2 µM; in the test with CA46, 3 µM; in the test on A549, 0.52 µM; in the test on HL-60 it was 0.32 µM.
`O=C1c2cccnc2C(=O)c2c1c(C(=O)OCCN1CCOCC1)c1ccccn21`: the Top1 relaxation inhibition relative to camptothecin (%) in the test filed under Bos taurus was above 120%. Besides, the inhibition entry in test [2] was “inactive”. Further, the result in test [1] was inactive. For the same molecule, the half-inhibitory concentration (IC50) in the test on HeLa was 10 µM; in the test with CA46, 5.8 µM; with A549, below 0.01 µM; in the test on HL-60, 0.034 µM.
For `CN(C)CCCNC(=O)c1c2c(n3ccccc13)C(=O)c1ncccc1C2=O`, the Top1 relaxation inhibition relative to camptothecin (%) in the test listed under Bos taurus was above 120%. Further, in test [2], the inhibition entry is “Active”. For the same molecule, in test [1], the outcome was inactive. The concentration for half-maximal inhibition (IC50) in the test with HeLa worked out at 0.96 µM; with CA46 it was 1.2 µM; with A549, 0.37 µM; with HL-60 it was 2.3 µM.
Consider `CCNC(=O)c1c2c(n3ccccc13)C(=O)c1ncccc1C2=O`, for which the outcome in test [1] was inactive.
In the case of `O=C1c2cccnc2C(=O)c2c1c(C(=O)NCCN1CCCCC1)c1ccccn21`, the result in test [1] was inactive.
Consider `O=C1c2cccnc2C(=O)c2c1c(C(=O)NCCn1ccnc1)c1ccccn21`, for which the Top1 relaxation inhibition relative to camptothecin (%) in the test listed under Bos taurus was above 120%. Also, the inhibition entry in test [2] is “inactive”. Further, the outcome in test [1] was inactive. Moreover, the 50% inhibitory concentration (IC50) turned out to be 5.8 µM in the test on HeLa, 2.9 µM in the test on CA46, 2.3 µM in the test on A549 and 2.3 µM in the test with HL-60.
`CCN(CC)CCCNC(=O)c1c2c(n3ccccc13)C(=O)c1ncccc1C2=O`: the Top1 relaxation inhibition relative to camptothecin (%) in the test listed under Bos taurus is above 120%. In test [2], the inhibition entry was “Active”. The outcome in test [1] was inactive. The concentration for half-maximal inhibition (IC50) with HeLa stood at 1.3 µM; in the test with CA46 it was 1.2 µM; in the test on A549, 1 µM; in the test on HL-60 it was 1.4 µM.
`O=C1c2cccnc2C(=O)c2c1c(C(=O)NCCCc1ccccc1)c1ccccn21`: the Top1 relaxation inhibition relative to camptothecin (%) in the test filed under Bos taurus is 40%. Further, the result in test [1] was inactive. Moreover, the IC50 with HeLa was determined as 29 µM; in the test on CA46 it was 14 µM; in the test with A549, 15 µM; in the test with HL-60, 75 µM.
For `O=C1c2cccnc2C(=O)c2c1c(C(=O)NCCCN1CCCCC1)c1ccccn21`, the Top1 relaxation inhibition relative to camptothecin (%) in the test filed under Bos taurus is above 120%. For the same molecule, the inhibition entry in test [2] is “Active”. Besides, in test [1], the result was inactive. Also, the IC50 with HeLa was 1.2 µM; with CA46 it was 1.2 µM; in the test on A549 it was 3.3 µM; with HL-60, 1.3 µM.
Turning to `CN1CCN(CCNC(=O)c2c3c(n4ccccc24)C(=O)c2ncccc2C3=O)CC1`, the Top1 relaxation inhibition relative to camptothecin (%) in the test filed under Bos taurus was above 120%. Also, the inhibition result in test [2] was “Active”. In test [1], the result was inactive. In addition, the half-maximal inhibitory concentration (IC50) worked out at 1 µM with HeLa, 1.1 µM with CA46, 0.44 µM in the test on A549 and 2.8 µM in the test with HL-60.
Regarding `CCN(CC)C(=O)c1c2c(n3ccccc13)C(=O)c1ncccc1C2=O`, in the test filed under Bos taurus, the Top1 relaxation inhibition relative to camptothecin (%) is below 40%. For the same molecule, the result in test [1] was inactive. Also, the IC50 with HeLa turned out to be 46 µM; in the test with CA46, 15 µM; in the test on A549 it was 64 µM; with HL-60 it was 14 µM.
`O=C1c2cccnc2C(=O)c2c1c(C(=O)OCCN1CCCC1)c1ccccn21`: the result in test [1] was inactive.
Consider `O=C1c2cccnc2C(=O)c2c1c(C(=O)N1CCCCC1)c1ccccn21`, for which the Top1 relaxation inhibition relative to camptothecin (%) in the test filed under Bos taurus was below 40%. In addition, the result in test [1] was inactive. Further, the IC50 in the test on HeLa came out at 19 µM; with CA46, 13 µM; in the test on A549, 76 µM; in the test with HL-60, 52 µM.
In the case of `O=C1c2cccnc2C(=O)c2c1c(C(=O)OCCCN1CCCC1)c1ccccn21`, the Top1 relaxation inhibition relative to camptothecin (%) in the test filed under Bos taurus is above 120%. Further, in test [2], the inhibition entry was “Active”. Further, the result in test [1] was inactive. Besides, the IC50 with HeLa was found to be 0.94 µM; in the test with CA46 it was 1.1 µM; in the test on A549, 0.14 µM; in the test with HL-60, 0.026 µM.
`O=C1c2cccnc2C(=O)c2c1c(C(=O)OCCCBr)c1ccccn21`: in test [1], the outcome was inactive.
For the molecule `CN1CCN(CCCNC(=O)c2c3c(n4ccccc24)C(=O)c2ncccc2C3=O)CC1`, the Top1 relaxation inhibition relative to camptothecin (%) in the test filed under Bos taurus is above 120%. For the same molecule, the inhibition result in test [2] was “Active”. Besides, the outcome in test [1] was inactive. Moreover, the half-maximal inhibitory concentration (IC50) is 8.9 µM in the test on HeLa, 3.8 µM in the test with CA46, 5.5 µM in the test with A549 and 2.2 µM in the test on HL-60.
In the case of `O=C1c2cccnc2C(=O)c2c1c(C(=O)NCCN1CCCC1)c1ccccn21`, the Top1 relaxation inhibition relative to camptothecin (%) in the test filed under Bos taurus was above 120%. In test [2], the inhibition entry is “Active”. Besides, the result in test [1] was inactive. Besides, the IC50 was found to be 0.78 µM in the test on HeLa, 15 µM with CA46, 0.49 µM in the test with A549 and 1.2 µM in the test with HL-60.
Consider `O=C1c2cccnc2C(=O)c2c1c(C(=O)OCCBr)c1ccccn21`, for which the result in test [1] was inactive.
`O=C1c2cccnc2C(=O)c2c1c(C(=O)OCCc1ccccn1)c1ccccn21`: in the test listed under Bos taurus, the Top1 relaxation inhibition relative to camptothecin (%) worked out at 81%. Further, the inhibition entry in test [2] is “inactive”. Further, in test [1], the outcome was inactive. Moreover, the IC50 with HeLa was 1.1 µM; with CA46, 2.9 µM; in the test on A549, 7.8 µM; with HL-60 it was 0.11 µM.
